Measurements from patent publication US20260109712A1, “RIFAMYCINS FOR NONTUBERCULOUS MYCOBACTERIA” (priority 2022, published 2026).
Converted amounts (≈) assume the structure as drawn. Read-outs that look alike come from different tables or passages of the source.

Legend:
[1] = test system: M. szulgai ATCC 35799; test: MIC, anti-mycobacterial profiling; type: cell-based, Mycobacterium szulgai; conditions: mean of two experiments
[2] = test system: M. abscessus subsp. bolletii CCUG 50184T; test: MIC, anti-mycobacterial profiling; type: cell-based, Mycobacterium abscessus; conditions: mean of two experiments
Method: (§1) MIC determination was carried out in 96-well plate format as previously described.^[13-14] 96-well plates were initially set up with 100 μL of 7H9 per well. For each compound, a ten-point two-fold dilution series starting at twice the desired highest concentration was dispensed onto the 96-well plates using a Tecan D300e Digital Dispenser, with the DMSO concentration normalized to 2%. M. abscessus culture grown to mid-log phase (OD600=0.4-0.6) was diluted to OD600=0.1 (1×10^7 CFU/mL). 100 μL of the resulting bacteria suspension was dispensed onto the 96-well plates containing compounds to give a final volume of 200 μL per well with an initial OD600=0.05 (5×10^6 CFU/mL) and final DMSO concentration of 1%. Final compound concentration ranges were typically 50-0.098 μM, 6.25-0.012 μM, 0.006-3.13 μM, or 0.003-1.56 μM. Untreated control wells are included on each plate that contain bacteria suspension and 1% DMSO. Plates were sealed with parafilm, stored in boxes with wet paper towels and incubated at 37° C. with shaking (110 RPM). Plates were incubated for 3 days. To determine growth, OD600 was measured using a Tecan Infinite M200 plate reader on Day 0 and Day 3. Two biological replicates were performed. Clarithromycin was included in each experiment as a positive control.
(§2) For each well on the 96-well plate, bacterial growth was calculated by subtracting the Day 0 OD600 value from the Day 3 OD600 value. For each compound series, the bacterial growth values for the untreated control wells were averaged to give the average drug-free bacterial growth. For compound-containing wells, percentage growth was calculated by dividing their growth values by the average drug-free bacterial growth for the compound series and multiplying by 100. For each compound series, we plotted percentage growth versus compound concentration. By visual inspection of the dose-response curve, we determined the MIC of a compound as the compound concentrations that would result in 90% growth inhibition.
(§3) The MIC data was determined using methods disclosed in Example 1.

[3] = test system: M. abscessus subsp. massiliense CCUG 48898T; test: MIC, anti-mycobacterial profiling; type: cell-based, Mycobacterium abscessus; conditions: mean of two experiments
Method: as §1, §2, §3

[4] = test system: M. kansasii ATCC 12478; test: MIC, anti-mycobacterial profiling; type: cell-based, Mycobacterium kansasii; conditions: mean of two experiments
[5] = test system: M. chelonae ATCC 35752; test: MIC, anti-mycobacterial profiling; type: cell-based, Mycobacterium chelonae; conditions: mean of two experiments
[6] = test system: M. intracellulare ATCC 13950; test: MIC, anti-mycobacterial profiling; type: cell-based, Mycobacterium intracellulare; conditions: mean of two experiments
[7] = test system: M. chimaera CCUG 50989T; test: MIC, anti-mycobacterial profiling; type: cell-based, Mycobacterium chimaera; conditions: mean of two experiments
[8] = test system: M. avium subsp. hominisuis MAC109; test: MIC, anti-mycobacterial profiling; type: cell-based, Mycobacterium avium; conditions: mean of two experiments
[9] = test system: M. simiae ATCC 25275; test: MIC, anti-mycobacterial profiling; type: cell-based, Mycobacterium simiae; conditions: mean of two experiments
[10] = test system: M. xenopi ATCC 19250; test: MIC, anti-mycobacterial profiling; type: cell-based, Mycobacterium xenopi; conditions: mean of two experiments
[11] = test system: M. abscessus ATCC 19977; test: MIC assay in 96-well plate format, wild-type strain; type: cell-based, Mycobacterium abscessus; conditions: for MICWT: Table 10
Procedure, shortened: (§4)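 Two-fold, ten-point dilutions in 7H9 with 2% DMSO; mid-log culture diluted to OD600=0.1 (1×10^7 CFU/mL). Incubated 3 days at 37 °C, shaking 110 RPM; growth = Day 3 minus Day 0 OD600, expressed as percentage of drug-free growth and plotted against concentration. Two biological replicates.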

[12] = test system: M. fortuitum ATCC 6841; test: MIC, anti-mycobacterial profiling; type: cell-based, Mycobacterium fortuitum; conditions: mean of two experiments
[13] = test system: Δarr M. abscessus; test: MIC assay, isogenic arr-deleted strain; type: cell-based, Mycobacterium abscessus; conditions: Table 10
Procedure, shortened: as §4

[14] = Plasma protein binding assay (rapid equilibrium dialysis); type: in vitro ADME; conditions: plasma
Procedure, shortened: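 Plasma was spiked to 10,000 ng/mL compound and dialysed against PBS by rapid equilibrium dialysis for 4 h at 37° C with shaking at 300 RPM. Plasma and buffer aliquots were matrix-matched 1:1 […] and quantified by LC-MS/MS.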

[15] = test system: Mycobacterium abscessus; test: MIC against Mycobacterium abscessus (strain not given); type: cell-based
[16] = Mouse pharmacokinetics studies; type: in vivo, CD-1 mice; conditions: for ƒAUC/MIC: Table 20; for F / Vd / clearance: female, CD-1, mouse, in vivo
Procedure, shortened: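 Plasma from K2EDTA-collected blood analysed by LC-MS/MS with multiple-reaction monitoring in electrospray positive mode. Parameters derived by non-compartmental analysis.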

[17] = test system: THP-1; test: Fold-killing in THP-1; type: cell-based; conditions: expressed in log-10 scale
[18] = test system: CYP3A4; conditions: human, 10 μM
Method: The threshold cycle (CT) was measured for each isoform cDNA by real time qRT-PCR. The mRNA level of each isoform was assessed by the relative quantifiation with reference gene (GAPDH) as the normalizer method. The normalized fold induction was calculated by 2^−ΔΔCT method, in which 0.1% DMSO was used as the reference (vehicle control). The induction potential of each test compound was analyzed by comparing its fold induction to a pre-determined cutoff value for each lot of hepatocytes. The hepatocytes lots used in this study were validated using 10 known inducers and 5 known non-inducers for each isozyme. A cutoff value is determined based on the validation study for each hepatocytes lot.

[19] = test system: Mab ATCC 19977 (Smooth); test: Acute Mab mouse infection model (GM-CSF knockout mice); type: in vivo; conditions: 25 mg/kg every day for 7 days
Method: In vivo efficacy of compounds UMN22 and UMN34 were evaluated in acute Mab mouse infection model.

[20] = Mycobacteroides abscessus, 72 h, Table 22, read-out: MICMab
[21] = Mycobacteroides abscessus, against Mycobacterium abscessus, Table 19, read-out: MIC
[22] = against Mycobacterium abscessus, Table 20, read-out: MIC

CO[C@H]1/C=C/O[C@@]2(C)Oc3c(C)c(O)c4c(O)c(c(/C=N/N5CCN(C)CC5)c(O)c4c3C2=O)NC(=O)/C(C)=C\C=C\[C@H](C)[C@H](O)[C@@H](C)[C@@H](O)[C@@H](C)[C@H](OC(C)=O)[C@@H]1C [RIF]
MIC [1]: 0.06 µM (≈ 0.0494 µg/mL) | MIC [2]: 28 µM (≈ 23 µg/mL) | MIC [3]: 13 µM (≈ 10.7 µg/mL) | MIC [4]: 0.3 µM (≈ 0.247 µg/mL) | MIC [5]: 1.4 µM (≈ 1.15 µg/mL) | MIC [6]: 0.06 µM (≈ 0.0494 µg/mL) | MIC [7]: 0.07 µM (≈ 0.0576 µg/mL) | MIC [8]: 0.04 µM (≈ 0.0329 µg/mL) | MIC [9]: >100 µM | MIC [10]: 0.04 µM (≈ 0.0329 µg/mL) | MIC ([11]; M. abscessus subsp. abscessus ATCC 19977, mean of two experiments, read-out: MIC): 9.5 µM (≈ 7.82 µg/mL) | MIC [12]: 6.7 µM (≈ 5.51 µg/mL)

CO[C@H]1/C=C/O[C@@]2(C)Oc3c(C)c(O)c4c(c3C2=O)C2=NC3(CCN(CC(C)C)CC3)NC2=C(NC(=O)/C(C)=C/C=C/[C@H](C)[C@H](O)[C@@H](C)[C@@H](O)[C@@H](C)[C@H](OC(=O)c2cccnc2)[C@@H]1C)C4=O [UMN22]
MICΔorr [13]: 0.027 µM | plasma unbound (ƒu, %) ([14]; 4 h, 10000 ng/mL): 2.0% | MIC [15, 20]: 0.025 µM (≈ 0.0228 µg/mL) | MIC [15, 21]: 0.025 µM (≈ 0.0228 µg/mL) | MIC [15, 22]: 0.025 µM (≈ 0.0228 µg/mL) | ƒAUC/MIC [16]: 45.0 | F [16]: 78% | Vd [16]: 1.6 L/kg | clearance [16]: 3 mL/min/kg | Fold-killing in THP-1 [17]: 3.8 | CYP3A4 gene fold-induction at 10 μM [18]: 14.1 | reduction in lung CFU burden vs RFB and untreated groups [19]: ~2 log10 | MICWT [11]: 0.025 µM

COc1ccccc1NC(=O)O[C@H]1[C@H](C)[C@H](O)[C@H](C)[C@@H](O)[C@@H](C)/C=C/C=C(\C)C(=O)NC2=C3NC4(CCN(CC(C)C)CC4)N=C3c3c(c(O)c(C)c4c3C(=O)[C@@](C)(O/C=C/[C@H](OC)[C@H]1C)O4)C2=O [UMN34]
MICΔorr [13]: 0.014 µM | plasma unbound (ƒu, %) [14]: 0.12% | plasma unbound fraction [14]: 0.12% | MIC [15, 22]: 0.015 µM (≈ 0.0143 µg/mL) | ƒAUC/MIC [16]: 0.9 | Fold-killing in THP-1 [17]: 4.9 | reduction in lung CFU burden vs RFB and untreated groups [19]: ~2 log10 | MICWT [11]: 0.015 µM

CO[C@H]1/C=C/O[C@@]2(C)Oc3c(C)c(O)c4c(c3C2=O)C2=NC3(CCN(CC(C)C)CC3)NC2=C(NC(=O)/C(C)=C/C=C/[C@H](C)[C@H](O)[C@@H](C)[C@@H](O)[C@@H](C)[C@H](OC(=O)c2cncnc2)[C@@H]1C)C4=O [UMN46]
MICΔorr [13]: 0.025 µM | plasma unbound (ƒu, %) ([14]; 4 h, 10000 ng/mL): 4.7% | MIC [15, 20]: 0.018 µM (≈ 0.0164 µg/mL) | MIC [15, 21]: 0.018 µM (≈ 0.0164 µg/mL) | MIC [15, 22]: 0.018 µM (≈ 0.0164 µg/mL) | ƒAUC/MIC [16]: 87.8 | F [16]: 86% | Vd [16]: 2.1 L/kg | clearance [16]: 4 mL/min/kg | Fold-killing in THP-1 [17]: 4.4 | CYP3A4 gene fold-induction at 10 μM [18]: 7.9 | MICWT [11]: 0.018 µM
